PubChem BioAssay (NCI)
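GI50: concentration for 50% inhibition of growth. TGI: total growth inhibition.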

What was measured:
Assay in all cases: NCI tumour cell line growth inhibition, 384-well format
786-0 renal = tested on: 786-0 renal
A498 renal = tested on: A498 renal
A549 NSCLC = tested on: A549 NSCLC
ACHN renal = tested on: ACHN renal
BT-549 breast = tested on: BT-549 breast
CAKI-1 renal = tested on: CAKI-1 renal
CCRF-CEM leukemia = tested on: CCRF-CEM leukemia
COLO 205 colon = tested on: COLO 205 colon
DU-145 prostate = tested on: DU-145 prostate
EKVX NSCLC = tested on: EKVX NSCLC
HCC-2998 colon = tested on: HCC-2998 colon
HCT-116 colon = tested on: HCT-116 colon
HCT-15 colon = tested on: HCT-15 colon
HL-60(TB) leukemia = tested on: HL-60(TB) leukemia
HOP-62 NSCLC = tested on: HOP-62 NSCLC
HOP-92 NSCLC = tested on: HOP-92 NSCLC
HS 578T breast = tested on: HS 578T breast
HT29 colon = tested on: HT29 colon
IGROV1 ovarian = tested on: IGROV1 ovarian
K-562 leukemia = tested on: K-562 leukemia
KM12 colon = tested on: KM12 colon
LOX IMVI melanoma = tested on: LOX IMVI melanoma
M14 melanoma = tested on: M14 melanoma
MALME-3M melanoma = tested on: MALME-3M melanoma
MCF7 breast = tested on: MCF7 breast
MDA-MB-231 breast = tested on: MDA-MB-231 breast
MDA-MB-435 melanoma = tested on: MDA-MB-435 melanoma
MDA-MB-468 breast = tested on: MDA-MB-468 breast
MOLT-4 leukemia = tested on: MOLT-4 leukemia
NCI-H226 lung = tested on: NCI-H226 lung
NCI-H23 lung = tested on: NCI-H23 lung
NCI-H322M lung = tested on: NCI-H322M lung
NCI-H460 NSCLC = tested on: NCI-H460 NSCLC
NCI-H522 lung = tested on: NCI-H522 lung
NCI/ADR-RES ovarian = tested on: NCI/ADR-RES ovarian
OVCAR-3 ovarian = tested on: OVCAR-3 ovarian
OVCAR-4 ovarian = tested on: OVCAR-4 ovarian
OVCAR-5 ovarian = tested on: OVCAR-5 ovarian
OVCAR-8 ovarian = tested on: OVCAR-8 ovarian
PC-3 prostate = tested on: PC-3 prostate
RPMI-8226 leukemia = tested on: RPMI-8226 leukemia
RXF 393 renal = tested on: RXF 393 renal
SF-268 CNS = tested on: SF-268 CNS
SF-295 CNS = tested on: SF-295 CNS
SF-539 CNS = tested on: SF-539 CNS
SK-MEL-2 melanoma = tested on: SK-MEL-2 melanoma
SK-MEL-28 melanoma = tested on: SK-MEL-28 melanoma
SK-MEL-5 melanoma = tested on: SK-MEL-5 melanoma
SK-OV-3 ovarian = tested on: SK-OV-3 ovarian
SN12C renal = tested on: SN12C renal
SNB-19 CNS = tested on: SNB-19 CNS
SNB-75 CNS = tested on: SNB-75 CNS
SR leukemia = tested on: SR leukemia
SW-620 colon = tested on: SW-620 colon
T-47D breast = tested on: T-47D breast
TK-10 renal = tested on: TK-10 renal
U251 glioblastoma = tested on: U251 glioblastoma
UACC-257 melanoma = tested on: UACC-257 melanoma
UACC-62 melanoma = tested on: UACC-62 melanoma
UO-31 renal = tested on: UO-31 renal

Compound: CC(=O)OC1C(C)OC(Oc2c(-c3ccc(O)cc3)oc3cc(O)cc(O)c3c2=O)C(O)C1OC(C)=O (stereo not given)
- GI50 ([…]-0 renal): 62 µM
- TGI (786-0 renal): > 100 µM
- GI50 (A498 renal): 92.1 µM
- TGI (A498 renal): > 100 µM
- GI50 (A549 NSCLC): > 100 µM
- TGI (A549 NSCLC): > 100 µM
- GI50 (ACHN renal): 74.5 µM
- TGI (ACHN renal): > 100 µM
- GI50 (BT-549 breast): 19.4 µM
- TGI (BT-549 breast): 44.7 µM
- GI50 (CAKI-1 renal): > 100 µM
- TGI (CAKI-1 renal): > 100 µM
- GI50 (CCRF-CEM leukemia): 20.2 µM
- TGI (CCRF-CEM leukemia): 37.6 µM
- GI50 (COLO 205 colon): 93.1 µM
- TGI (COLO 205 colon): > 100 µM
- GI50 (DU-145 prostate): 27.6 µM
- TGI (DU-145 prostate): 77.1 µM
- GI50 (EKVX NSCLC): 83.8 µM
- TGI (EKVX NSCLC): > 100 µM
- GI50 (HCC-2998 colon): 38.7 µM
- TGI (HCC-2998 colon): > 100 µM
- GI50 (HCT-116 colon): 39.2 µM
- TGI (HCT-116 colon): > 100 µM
- GI50 (HCT-15 colon): 87.7 µM
- TGI (HCT-15 colon): > 100 µM
- GI50 (HL-60(TB) leukemia): 17.5 µM
- TGI (HL-60(TB) leukemia): 31.5 µM
- GI50 (HOP-62 NSCLC): 20.8 µM
- TGI (HOP-62 NSCLC): 49 µM
- GI50 (HOP-92 NSCLC): 28.6 µM
- TGI (HOP-92 NSCLC): 76.8 µM
- GI50 (HS 578T breast): 21.5 µM
- TGI (HS 578T breast): 62.4 µM
- GI50 (HT29 colon): 63.6 µM
- TGI (HT29 colon): > 100 µM
- GI50 (IGROV1 ovarian): 44.7 µM
- TGI (IGROV1 ovarian): > 100 µM
- GI50 (K-562 leukemia): 34.4 µM
- TGI (K-562 leukemia): > 100 µM
- GI50 (KM12 colon): 41.9 µM
- TGI (KM12 colon): > 100 µM
- GI50 (LOX IMVI melanoma): 31.6 µM
- TGI (LOX IMVI melanoma): > 100 µM
- GI50 (M14 melanoma): 39.8 µM
- TGI (M14 melanoma): > 100 µM
- GI50 (MALME-3M melanoma): 20.2 µM
- TGI (MALME-3M melanoma): 49.8 µM
- GI50 (MCF7 breast): 37.2 µM
- TGI (MCF7 breast): > 100 µM
- GI50 (MDA-MB-231 breast): 25.7 µM
- TGI (MDA-MB-231 breast): 74.1 µM
- GI50 (MDA-MB-435 melanoma): 40.8 µM
- TGI (MDA-MB-435 melanoma): > 100 µM
- GI50 (MDA-MB-468 breast): 19.6 µM
- TGI (MDA-MB-468 breast): 38.7 µM
- GI50 (MOLT-4 leukemia): 17.4 µM
- TGI (MOLT-4 leukemia): 31.9 µM
- GI50 (NCI-H226 lung): 34.2 µM
- TGI (NCI-H226 lung): > 100 µM
- GI50 (NCI-H23 lung): 28.8 µM
- TGI (NCI-H23 lung): 82.3 µM
- GI50 (NCI-H322M lung): 46.9 µM
- TGI (NCI-H322M lung): > 100 µM
- GI50 (NCI-H460 NSCLC): 39.5 µM
- TGI (NCI-H460 NSCLC): > 100 µM
- GI50 (NCI-H522 lung): 20.5 µM
- TGI (NCI-H522 lung): 46.2 µM
- GI50 (NCI/ADR-RES ovarian): > 100 µM
- TGI (NCI/ADR-RES ovarian): > 100 µM
- GI50 (OVCAR-3 ovarian): 23.3 µM
- TGI (OVCAR-3 ovarian): 57.7 µM
- GI50 (OVCAR-4 ovarian): 36.4 µM
- TGI (OVCAR-4 ovarian): > 100 µM
- GI50 (OVCAR-5 ovarian): > 100 µM
- TGI (OVCAR-5 ovarian): > 100 µM
- GI50 (OVCAR-8 ovarian): 31.4 µM
- TGI (OVCAR-8 ovarian): > 100 µM
- GI50 (PC-3 prostate): 38.9 µM
- TGI (PC-3 prostate): > 100 µM
- GI50 (RPMI-8226 leukemia): 15.1 µM
- TGI (RPMI-8226 leukemia): 30.8 µM
- GI50 (RXF 393 renal): 23 µM
- TGI (RXF 393 renal): 65.9 µM
- GI50 (SF-268 CNS): 28.8 µM
- TGI (SF-268 CNS): 92.7 µM
- GI50 (SF-295 CNS): 33.9 µM
- TGI (SF-295 CNS): > 100 µM
- GI50 (SF-539 CNS): > 100 µM
- TGI (SF-539 CNS): > 100 µM
- GI50 (SK-MEL-2 melanoma): 30 µM
- TGI (SK-MEL-2 melanoma): 73.8 µM
- GI50 (SK-MEL-28 melanoma): 32.2 µM
- TGI (SK-MEL-28 melanoma): > 100 µM
- GI50 (SK-MEL-5 melanoma): 32.5 µM
- TGI (SK-MEL-5 melanoma): > 100 µM
- GI50 (SK-OV-3 ovarian): 46.3 µM
- TGI (SK-OV-3 ovarian): > 100 µM
- GI50 (SN12C renal): 32.2 µM
- TGI (SN12C renal): > 100 µM
- GI50 (SNB-19 CNS): 50.4 µM
- TGI (SNB-19 CNS): > 100 µM
- GI50 (SNB-75 CNS): 32 µM
- TGI (SNB-75 CNS): 97 µM
- GI50 (SR leukemia): 17.7 µM
- TGI (SR leukemia): 34.2 µM
- GI50 (SW-620 colon): 59.1 µM
- TGI (SW-620 colon): > 100 µM
- GI50 (T-47D breast): 19.5 µM
- TGI (T-47D breast): 47.7 µM
- GI50 (TK-10 renal): > 100 µM
- TGI (TK-10 renal): > 100 µM
- GI50 (U251 glioblastoma): 46.4 µM
- TGI (U251 glioblastoma): > 100 µM
- GI50 (UACC-257 melanoma): 43.5 µM
- TGI (UACC-257 melanoma): > 100 µM
- GI50 (UACC-62 melanoma): 23.1 µM
- TGI (UACC-62 melanoma): 63.6 µM
- GI50 (UO-31 renal): > 100 µM
- TGI (UO-31 renal): > 100 µM
